Results as given in patent US7530461B2, “Esters of 5-aminolevulinic acid as photosensitizing agents in photochemotherapy” (PhotoCure ASA, priority 1995, dated 2009).
Entries after “also recorded” stand apart in the source; their conditions may differ. Where a name gives a salt, the structure may show the parent alone.

Columns and labels:
[1] = tested on: BCC lesions and adjacent normal skin; assay: In vivo surface fluorescence of tumor tissue and adjacent normal skin by spectrofluorometer; parameters: species or system human; conditions: after 24 hours, surface measurement
Method: (§1) In a person presenting multiple ulcero-nodular BCCs lesions were exposed to commercial oil-in-water creams containing either ALA alone (20 k w/w) or ALA methyl ester (20% w/w) (as described in Example 7) covered by a semi-permeable dressing for 24 hours. After removal of dressings and cream in vivo fluorescence was measured at the surface of tumor tissue and adjacent normal skin by means of a spectrofluorometer. Punch biopsies of the same areas were removed and samples were immediately immersed in liquid nitrogen. The tissue sections were cut with a cryostat microtome to a thickness of 8 μm. The localization pattern of the porphyrin fluorescence in the tissue sections was directly observed by means of fluorescence microscopy. The same frozen sections were subsequently stained with routine H&E staining for histological identification.

[2] = tested on: BCC lesions and adjacent normal skin; assay: Control one week after treatment (cream and light irradiation) of BCC patient; type: in vivo, human
[3] = tested on: WiDr human colonic carcinoma; assay: PDT effect on tumor growth in WiDr human colonic carcinoma-transplanted nude mice; type: in vivo; conditions: with DF and DMSO
Method: Nude mice were transplanted with WiDr human colonic carcinoma cells by subcutaneous injection into the right flank region. […] The responses of the treated tumors were evaluated as tumor regression/regrowth time. When the tumors reached a volume 5 times that of the volume on the day of light irradiation, the mice were killed. (Bars: standard error of mean (SEM) based on 3-5 individual animals in each group).

normal skin of nude mice [4] = assay: Fluorescence microscopy of mouse skin biopsies after topical application; type: in vivo; conditions: 1 h after topical application
Method: (§2) Treatment procedure. One of the creams was painted on the normal skin at right flank region of each mouse, and covered by a semi-permeable dressing (3M, St Paul, Minn., USA) for various time intervals (from 0.25 to 24 h) before fluorescence measurements in situ or being biopsied for microscopic fluorescence imaging. About 0.2 g cream was applied to an approximate 2.25 cm^2 area of the skin. In the case of i.p. injection the mice were given ALA or its methylester at a dose of 150 mg/kg. At least three mice were used for each condition.
Fluorescence microscopy. After the creams were topically applied to the skin of mice for various times (as indicated above), the skin was biopsied and the frozen tissue sections were cut with a cryostat to a thickness of 8 μm. The fluorescence microscopy was carried out using an Axioplan microscope (Zeiss, Germany) with a 100 W mercury lamp. The fluorescence images were recorded by a light-sensitive thermoelectrically cooled charge coupled device (CCD) camera (resolution: 385×578 pixels with a dynamic range of 16 bits per pixel)(Astromed CCD 3200, Cambridge, UK) and hard copies on a video printer (Sony multiscan video printer UP-930). The filter combination used for detection of porphyrin fluorescence consisted of 390-440 nm excitation filter, a 460 nm beam splitter and a >600 nm emission filter.
II. […] The fluorescence intensity of the porphyrins increased with the time after the application.

[5] = tested on: BCC lesions and surrounding normal skin; assay: PpIX production in human BCC and surrounding normal skin by CCD microscopy of biopsies; type: in vivo; conditions: for distribution of PpIX fluorescence from top to bottom of BCC lesions: patient
Method: as §1, with “In a person presenting multiple ulcero-nodular BCCs lesions were exposed to commercial oil-in-water creams containing either ALA alone (20 k w/w) or ALA methyl ester (20% w/w) (as described in Example 7) covered by a semi-permeable dressing for 24 hours.” left out
The same sections were subsequently stained with routine H&E staining for histological identification. Fluorescence microscopy was carried out with an Axioplan microscope (Zeiss, Germany). Fluorescence images and quantitative measurements were performed by a light-sensitive thermol-electrically cooled charge coupled device (CCD) camera (Astromed CCD 3200, Cambridge, UK) and an image processing unit (Astromed/Visilog, PC 486DX2 66 MHz VL). The main purpose for such quantitative measurements is to determine the exact penetration of ALA-induced porphyrins from tissue surface to the bottom layers of cancer lesions. The results are shown in FIGS. 8 and 9 in which the fluorescence intensity is expressed as a function of depth of cancer lesion.
The tests were performed as described in Example 11.
Each of the following figures show both (A) fluorescence images of either the bottom layer of BCC lesions or of the surrounding normal skin. Curves indicating the fluorescence intensity as a function of depth of the BCC lesions or of the normal skin are also shown (B).

normal skin of nude mice [6] = assay: In situ measurement of PpIX fluorescence in the skin of mice by an optical-fiber-based system; type: in vivo
[7] = tested on: normal skin of nu/nu nude mice; assay: Protoporphyrin IX production in the skin of mice by CCD microscopy of biopsies; type: in vivo; conditions: 20% w/w cream; for time after topical application at which conversion into protoporphyrin IX (PpIX) is seen: normal skin of nu/nu nude mice; for time of maximum PpIX fluorescence after application: topical, 6 hours was the latest time point studied
Method: A commercial oil-in-water cream containing (20% w/w) one of the chemicals (free ALA, ALA methylester, ALA ethylester and ALA propylester) (see Example 1) was topically applied to the normal skin of nu/nu nude mice for 0.5, 1, 3 and 6 hours, then biopsied and evaluated by means of microscopic fluorescence photometry incorporating a light-sensitive thermol-electrically cooled charge coupled device (CCD) camera. […] The fluorescence intensity of PpIX in the skin increased with the time of the application and the maximum amounts of the fluorescence were seen about 6 hours (the latest time point studied) after the application in all cases.

[8] = tested on: basal cell carcinoma (BCC) lesions and surrounding normal skin; assay: PpIX fluorescence in human BCC and surrounding normal skin by optical-fiber based system; type: in vivo
Method: The PpIX fluorescence in the BCC lesions and surrounding normal skin of human patients was measured in situ by optical-fiber based system after topical application of 20% free ALA and its derivatives for various time intervals.
The PpIX fluorescence ratios between BCC lesions and surrounding normal skin after topical application of ALA or its esters (20% for 4 hours), was examined using methods described in previous examples.

normal skin of nude mice [9] = assay: In situ measurement of PpIX fluorescence in the skin of mice by an optical-fiber-based system; type: in vivo; conditions: for PpIX fluorescence in normal mouse skin after cream containing the agent alone: without ALA methylester
Method: Chemicals. 5-aminolevulinic acid (ALA) methyl-, ethyl- and propyl-esters (H2N—CH2COOCH2—CH2COO—R; R can be CH3, CH2—CH2—CH3) were prepared by Norsk Hydro Research Center (Porsgrunn, Norway) as described in Examples 1 to 3. Free ALA hydrochloride and desferrioxamine mesylate (DF) were purchased from Sigma Chemical Company (St. Louis, Mo., USA). Dimethyl sulphoxide (DMSO) was obtained from Janssen Chimica (Geel, Belgium). Commercial oil-water creams (Unguentum Merck, Darmstadt, Germany) containing 20% one of the ALA ester derivatives (w/w), 20% free ALA, 20% ALA methylester plus 5% DF, 20% ALA methylester plus 20% DMSO, or 20% ALA methylester plus 5% DF and 20% DMSO were freshly prepared prior to use. All creams were made by the Pharmacy at the Norwegian Radium Hospital. For intraperitoneal injection, ALA and its methylester were freshly dissolved in saline. All other chemicals used were of the highest purity commercially available.
Animals. Female Balb/c nu/nu athymic nude mice were obtained from the Animal Laboratory at the Norwegian Radium Hospital and kept under specific-pathogen-free conditions. At the start of the experiments the mice were 6-7 weeks old weighing 18-24 g. Three mice were housed per cage with autoclaved covers in a dark room during the experiments.
as §2
Fluorescence spectroscopic measurements in situ. A perkin Elmer LS-50 fluorescence spectrometer equipped with a red-sensitive photomultiplier (Hamamatsu R 928) was used. This instrument has a pulsed Xenon arc light source and phase sensitive detection, such that fluorescence can be readily measured. Part of the excitation beam (set at 408 nm for fluorescence measurements) was reflected into a 600 μm core multimodus optical quartz fiber (No. 3501 393, Dornier Medizintechnik, GmbH, Germering, Germany) by means of a mirror for application onto the subject through a hand held probe. Emission in the region of 550-750 nm was measured via emission fibres collecting information through the probe.
I. The effect of DF and/or DMSO on the build up of fluorescence in the normal skin of mice in situ was ascertained various times after topical administration of ALA-methylester. Methods were performed as described in Example 9.

[10] = tested on: basal cell carcinomas (BCCs); assay: Topical ALA-based PDT of patients with basal cell carcinomas; type: in vivo, human
[11] = topical application for 4.5 hours
[12] = topical application for 24 hours
[13] = intraperitoneal injection, 150 mg/kg

SMILES	erythema in adjacent normal skin exposed to cream and light irradiation [2]	tumor response in treatment fields [2]	localization of porphyrin fluorescence in mouse skin (normal skin of nude mice [4])	distribution of PpIX fluorescence from top to bottom of BCC lesions ([5]; 20% w/w cream, 24 hours)	distribution of porphyrin fluorescence in the bottom layer of BCC and surrounding normal skin [5, 12]	fluorescence intensity ratio between BCC and normal skin [5, 12]	porphyrin fluorescence/production in BCC, ALA methyl ester versus free ALA alone [5, 12]	time after topical application at which conversion into protoporphyrin IX (PpIX) is seen [7] [h]	time of maximum PpIX fluorescence after application [7]	PpIX fluorescence in normal mouse skin after cream containing the agent alone (normal skin of nude mice [9]; topical)	other results
COC(=O)CCC(=O)CN.Cl [ALA methylester, methyl 5-aminolevulinate hydrochloride]	only moderate erythema	central necrotic area corresponding to the tumor	fluorescence in the epidermis (Ep), epithelial hair follicles and sebaceous gland (arrows), but not in the dermis (De)	homogeneous distribution of PpIX fluorescence	uniform distribution	about 2	almost twice as high	0.5	about 6 hours	–	in vivo fluorescence intensity in tumors compared to ALA [1]: at least doubled fluorescence intensity; increase of in vivo fluorescence in corresponding normal tissues compared to ALA [1]: about 50%; slowing of tumor regrowth compared with ALA [3]: more effective than ALA in slowing tumor regrowth; PpIX fluorescence in the surrounding normal skin ([5]; 20% w/w cream, 24 hours): no PpIX fluorescence was seen in the surrounding normal skin; distribution of porphyrin fluorescence in the bottom layer of BCC [5, 11]: homogenous distribution; fluorescence intensity ratio between BCC and normal skin [5, 11]: about 2; porphyrin fluorescence/production in BCC, ALA methyl ester versus free ALA and 20% DMSO [5, 11]: higher than that induced by free ALA and 20% DMSO; decrease of skin fluorescence compared with free ALA (normal skin of nude mice [6]; [13]): the fluorescence decreased faster in the case of the ester than in the case of the free ALA; time at which PpIX fluorescence disappeared post injection (normal skin of nude mice [6]; [13]): ≤ 10 h; time at which PpIX fluorescence in the skin was built up after injection (normal skin of nude mice [6]; [13]): 15 min; time of peak PpIX fluorescence in the skin after injection (normal skin of nude mice [6]; [13]): around 4 hours; PpIX fluorescence ratios between BCC lesions and surrounding normal skin (selectivity) compared with free ALA ([8]; 20% for 4 hours, topical): more selectively induce PpIX in BCC lesions than free ALA; PpIX build-up, amount and localization in BCC lesions compared to free ALA ([8]; 20% topical, various time intervals, human patients): built up faster, produced more and localized more selectively in the BCC lesions
CC(=O)N(O)CCCCCNC(=O)CCC(=O)N(O)CCCCCNC(=O)CCC(=O)N(O)CCCCCN [DF, desferrioxamine mesylate]	–	–	–	–	–	–	–	–	–	some fluorescence of PpIX	effect on production of ALA methylester-induced PpIX (normal skin of nude mice [9]; topical, with 20% ALA methylester cream, normal mouse skin): significantly enhanced; also recorded: significant effect in enhancing the production
NCC(=O)CCC(=O)O [ALA, 5-aminolevulinic acid]	marked erythema	central necrotic area corresponding to the tumor	fluorescence in the epidermis (Ep), epithelial hair follicles and sebaceous gland (arrows), but not in the dermis (De)	homogeneous distribution of PpIX fluorescence	homogenous distribution	about 1	less than that in the case of ALA methyl ester	0.5	about 6 hours	–	time after topical application at which PpIX fluorescence was built up (normal skin of nude mice [9]; 20% cream, normal skin of nude mice): 1.5 h; complete response rate of nodular BCCs [10]: low complete response rate; superficial BCCs showing complete regression ([10]; past five years): more than 90%; PpIX fluorescence in other areas of the skin and internal organs (ear, dermis, muscle, brain, liver) (normal skin of nude mice [6]; 14 hours after topical application, listed as free ALA): a strong fluorescence was also seen in the ear as well as in the other areas of the skin; also recorded: a strong fluorescence of free ALA-induced porphyrins was found in regions of the skin outside the area where the cream was topically applied
CCOC(=O)CCC(=O)CN.Cl [ALA ethylester, ethyl 5-aminolevulinate hydrochloride]	–	–	fluorescence in the epidermis (Ep), epithelial hair follicles and sebaceous gland (arrows), but not in the dermis (De)	–	–	–	–	0.5	about 6 hours	–	–
CCCOC(=O)CCC(=O)CN.Cl [ALA propylester, n-propyl 5-aminolevulinate hydrochloride]	–	–	fluorescence in the epidermis (Ep), epithelial hair follicles and sebaceous gland (arrows), but not in the dermis (De)	–	–	–	–	0.5	about 6 hours	–	–
C[S+](C)[O-] [DMSO, Dimethyl sulphoxide]	–	–	–	–	–	–	–	–	–	did not show any fluorescence	–
